Assay results reported in the supplement of paper PMC10307832.

Columns and labels:
Assay in all cases: relative viability (nuclei count vs DMSO), 5 days (fraction); higher = more cells survive
[1] = test system: 201T
In short: (§1)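 Lung cancer cell lines in 1536-well plates were dosed by pin tool the day after seeding, either with one drug alone or with a fixed anchor-drug dose plus five library-drug doses (not always all listed) in √10 steps. After 5 days, cells were fixed and their nuclei stained in one step (final 0.05% Triton X-100, 1% formaldehyde, 1 ug/ml Hoechst), then counted on 4× images. Relative viability is the nuclei count in treated wells divided by that in vehicle wells. Values are medians of duplicate plates.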

[2] = test system: COR-L 105
In short: as §1

[3] = test system: ChaGo-K-1
In short: as §1

[4] = test system: EKVX
In short: as §1

[5] = test system: H3255
In short: as §1

[6] = test system: HARA
In short: as §1

[7] = test system: HCC-827
In short: as §1

[8] = test system: HOP-62
In short: as §1

[9] = test system: LCLC-103H
In short: as §1

[10] = test system: LOU-NH91
In short: as §1

[11] = test system: NCI-H1975
In short: as §1

[12] = test system: NCI-H2126
In short: as §1

[13] = test system: NCI-H2228
In short: as §1

[14] = test system: NCI-H23
In short: as §1

[15] = test system: NCI-H2405
In short: as §1

[16] = test system: NCI-H3122
In short: as §1

[17] = test system: NCI-H650
In short: as §1

[18] = test system: NCI-H661
In short: as §1

[19] = test system: NCI-H727
In short: as §1

[20] = test system: PC-3 [JPC-3]
In short: as §1

[21] = test system: SK-LU-1
In short: as §1

[22] = test system: SW 900
In short: as §1

Cc1csc(=NC2CCCCC2)n1/N=C/c1ccc(O)c(O)c1O [MIM1] + CC(=O)c1c(C)c2cnc(Nc3ccc(N4CCNCC4)cn3)nc2n(C2CCCC2)c1=O [Palbociclib] (partner 0.5 µM)
relative viability ([1]; first compound 0.2 µM): 0.358
relative viability ([1]; first compound 0.6325 µM): 0.344
relative viability ([1]; first compound 2 µM): 0.36
relative viability ([1]; first compound 6.325 µM): 0.327
relative viability ([1]; first compound 20 µM): 0.339
relative viability ([2]; first compound 0.2 µM): 0.472
relative viability ([2]; first compound 0.6325 µM): 0.435
relative viability ([2]; first compound 2 µM): 0.396
relative viability ([2]; first compound 6.325 µM): 0.396
relative viability ([2]; first compound 20 µM): 0.323
relative viability ([3]; first compound 0.2 µM): 0.951
relative viability ([3]; first compound 0.6325 µM): 0.926
relative viability ([3]; first compound 2 µM): 0.961
relative viability ([3]; first compound 6.325 µM): 0.7
relative viability ([3]; first compound 20 µM): 0.163
relative viability ([4]; first compound 0.2 µM): 0.332
relative viability ([4]; first compound 0.6325 µM): 0.367
relative viability ([4]; first compound 2 µM): 0.339
relative viability ([4]; first compound 6.325 µM): 0.312
relative viability ([4]; first compound 20 µM): 0.286
relative viability ([5]; first compound 0.2 µM): 0.308
relative viability ([5]; first compound 0.6325 µM): 0.326
relative viability ([5]; first compound 2 µM): 0.31
relative viability ([5]; first compound 6.325 µM): 0.326
relative viability ([5]; first compound 20 µM): 0.243
relative viability ([6]; first compound 0.2 µM): 0.253
relative viability ([6]; first compound 0.6325 µM): 0.302
relative viability ([6]; first compound 2 µM): 0.281
relative viability ([6]; first compound 6.325 µM): 0.251
relative viability ([6]; first compound 20 µM): 0.169
relative viability ([7]; first compound 0.2 µM): 0.443
relative viability ([7]; first compound 0.6325 µM): 0.511
relative viability ([7]; first compound 2 µM): 0.454
relative viability ([7]; first compound 6.325 µM): 0.307
relative viability ([7]; first compound 20 µM): 0.227
relative viability ([8]; first compound 0.2 µM): 0.454
relative viability ([8]; first compound 0.6325 µM): 0.44
relative viability ([8]; first compound 2 µM): 0.404
relative viability ([8]; first compound 6.325 µM): 0.431
relative viability ([8]; first compound 20 µM): 0.127
relative viability ([9]; first compound 0.2 µM): 0.465
relative viability ([9]; first compound 0.6325 µM): 0.528
relative viability ([9]; first compound 2 µM): 0.477
relative viability ([9]; first compound 6.325 µM): 0.482
relative viability ([9]; first compound 20 µM): 0.389
relative viability ([10]; first compound 0.2 µM): 0.524
relative viability ([10]; first compound 0.6325 µM): 0.569
relative viability ([10]; first compound 2 µM): 0.516
relative viability ([10]; first compound 6.325 µM): 0.499
relative viability ([10]; first compound 20 µM): 0.36
relative viability ([11]; first compound 0.2 µM): 0.529
relative viability ([11]; first compound 0.6325 µM): 0.67
relative viability ([11]; first compound 2 µM): 0.519
relative viability ([11]; first compound 6.325 µM): 0.256
relative viability ([11]; first compound 20 µM): 0.169
relative viability ([12]; first compound 0.2 µM): 0.336
relative viability ([12]; first compound 0.6325 µM): 0.388
relative viability ([12]; first compound 2 µM): 0.348
relative viability ([12]; first compound 6.325 µM): 0.34
relative viability ([12]; first compound 20 µM): 0.329
relative viability ([13]; first compound 0.2 µM): 0.835
relative viability ([13]; first compound 0.6325 µM): 0.646
relative viability ([13]; first compound 2 µM): 0.899
relative viability ([13]; first compound 6.325 µM): 0.177
relative viability ([13]; first compound 20 µM): 0.133
relative viability ([14]; first compound 0.2 µM): 0.518
relative viability ([14]; first compound 0.6325 µM): 0.51
relative viability ([14]; first compound 2 µM): 0.413
relative viability ([14]; first compound 6.325 µM): 0.19
relative viability ([14]; first compound 20 µM): 0.194
relative viability ([15]; first compound 0.2 µM): 0.512
relative viability ([15]; first compound 0.6325 µM): 0.549
relative viability ([15]; first compound 2 µM): 0.605
relative viability ([15]; first compound 6.325 µM): 0.383
relative viability ([15]; first compound 20 µM): 0.351
relative viability ([16]; first compound 0.2 µM): 0.186
relative viability ([16]; first compound 0.6325 µM): 0.195
relative viability ([16]; first compound 2 µM): 0.174
relative viability ([16]; first compound 6.325 µM): 0.187
relative viability ([16]; first compound 20 µM): 0.124
relative viability ([17]; first compound 0.2 µM): 0.372
relative viability ([17]; first compound 0.6325 µM): 0.359
relative viability ([17]; first compound 2 µM): 0.317
relative viability ([17]; first compound 6.325 µM): 0.366
relative viability ([17]; first compound 20 µM): 0.159
relative viability ([18]; first compound 0.2 µM): 0.404
relative viability ([18]; first compound 0.6325 µM): 0.42
relative viability ([18]; first compound 2 µM): 0.348
relative viability ([18]; first compound 6.325 µM): 0.33
relative viability ([18]; first compound 20 µM): 0.301
relative viability ([19]; first compound 0.2 µM): 0.634
relative viability ([19]; first compound 0.6325 µM): 0.686
relative viability ([19]; first compound 2 µM): 0.605
relative viability ([19]; first compound 6.325 µM): 0.546
relative viability ([19]; first compound 20 µM): 0.472
relative viability ([20]; first compound 0.2 µM): 0.544
relative viability ([20]; first compound 0.6325 µM): 0.538
relative viability ([20]; first compound 2 µM): 0.493
relative viability ([20]; first compound 6.325 µM): 0.446
relative viability ([20]; first compound 20 µM): 0.343
relative viability ([21]; first compound 0.2 µM): 0.442
relative viability ([21]; first compound 0.6325 µM): 0.397
relative viability ([21]; first compound 2 µM): 0.368
relative viability ([21]; first compound 6.325 µM): 0.418
relative viability ([21]; first compound 20 µM): 0.307
relative viability ([22]; first compound 0.2 µM): 0.632
relative viability ([22]; first compound 0.6325 µM): 0.581
relative viability ([22]; first compound 2 µM): 0.507
relative viability ([22]; first compound 6.325 µM): 0.211
relative viability ([22]; first compound 20 µM): 0.171
